Assay results from patent publication US5463062A, “Substituted cyclohexane derivatives, processes for their preparation and the use of the compounds for treating diseases” (Hoechst Aktiengesellschaft, priority 1992, dated 1995).
pIC50: −log10 of the molar value.

Legend:
[1] = target: T1, glucose-6-phosphatase system (Rattus norvegicus, UniProt F7EWB7); experiment: enzyme assay of glucose-6-phosphatase activity in liver microsomes (phosphate liberated from glucose-6-phosphate); assay type: biochemical, male Wistar rats; conditions: for pIC50: rat liver microsomes, glucose-6-phosphate 1 mmol/l, pH 7.0, 20 min at room temperature
T1 construct: To prepare the microsomal fraction containing the glucose-6-phosphatase, fresh liver organs from male Wistar rats were used; from tissue; host or cells: liver of male Wistar rats, microsomal fraction
T1 sequence (F7EWB7 1-429): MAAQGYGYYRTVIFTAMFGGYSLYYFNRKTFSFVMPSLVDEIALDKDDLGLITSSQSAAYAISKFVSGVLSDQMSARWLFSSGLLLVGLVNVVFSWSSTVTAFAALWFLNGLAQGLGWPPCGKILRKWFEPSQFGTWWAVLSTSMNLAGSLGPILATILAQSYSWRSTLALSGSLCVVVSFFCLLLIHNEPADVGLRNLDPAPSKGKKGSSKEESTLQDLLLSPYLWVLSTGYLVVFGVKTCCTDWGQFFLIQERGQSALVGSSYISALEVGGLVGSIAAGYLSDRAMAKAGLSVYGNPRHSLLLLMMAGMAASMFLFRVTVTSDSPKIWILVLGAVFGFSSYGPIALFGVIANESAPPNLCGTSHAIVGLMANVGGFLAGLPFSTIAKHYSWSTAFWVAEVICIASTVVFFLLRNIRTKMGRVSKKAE
Procedure: The effect of the compounds according to the invention on the glucose-6-phosphatase system has been investigated in an enzyme assay in liver microsomes.
To prepare the microsomal fraction containing the glucose-6-phosphatase, fresh liver organs from male Wistar rats were used and processed as described in the literature [Canfield, W. K. and Arion, W. J., J. Biol. Chem. 263, 7458-7460, (1988)]. This microsomal fraction can be stored at -70° C. without significant loss of activity for at least 2 months. The glucose-6-phosphatase activity was detected as indicated in the literature [Arion, W. J. in Methods Enzymol. 174, Academic Press 1989, pages 58-67) by determining the phosphate liberated from glucose-6-phosphate. 0.1 ml of assay mixture contained glucose-6-phosphate(1 mmol/l), the test substance, 0.1 mg of microsomal fraction and 100 mmol/l HEPES buffer (4-(2-hydroxyethyl)piperazine-1-ethanesulfonic acid), pH 7.0. The reaction was started by adding the enzyme. After 20 min at room temperature, the reaction was stopped by adding 0.2 ml of phosphate reagent. The sample was incubated at 37° C. for 30 min, and the absorption (A) of the blue color was subsequently measured at 570 nm. The inhibitory activity of the test substance was found by comparison with a control reaction which contained no test substance, using the formula [formula]
Where necessary, the inhibitory effect of the test substance was determined as a function of the test substance concentration employed, and from this the concentration for 50% inhibition of enzyme activity (IC50) was calculated.
The IC50 was determined for the compounds listed hereinafter: […]

glucose-6-phosphatase = conditions: in words, literature; cited from earlier work

SMILES: O=C(O[C@@H]1C[C@](OCCCc2ccc(Cl)cc2)(C(=O)O)C[C@@H](O)[C@H]1O)C1CCCCC1 [Example 115]
- pIC50 ([1]; TABLE): 5.05

SMILES: S=C=Nc1ccccc1C=Cc1ccccc1N=C=S [2,2'-diisothiocyanatostilbene]
- inhibition of glucose-6-phosphatase (glucose-6-phosphatase): non-specific inhibitors of glucose-6-phosphatase

SMILES: O=C(CCCCC1CCCCC1)O[C@@H]1C[C@](OCCCc2ccc(Cl)cc2)(C(=O)O)C[C@@H](O)[C@H]1O [Example 114]
- pIC50 ([1]; TABLE): 5.30

SMILES: O=C(/C=C/c1ccc(O)cc1)O[C@@H]1C[C@](OCc2cccs2)(C(=O)O)C[C@H](O)[C@H]1O [Example 2, [1S,3R,4R,5S]-3-[(E)-3-(4-hydroxyphenyl)-2-propenoyl]oxy-4,5-dihydroxy-1-(2-thienylmethyl)oxycyclohexanecarboxylic acid]
- pIC50 [1]: 3.96

SMILES: O=C(CCc1ccc(O)cc1)c1c(O)cc(O)cc1O[C@@H]1O[C@H](CO)[C@@H](O)[C@H](O)[C@H]1O [phlorrhizin]
- inhibition of glucose-6-phosphatase (glucose-6-phosphatase): non-specific inhibitors of glucose-6-phosphatase

SMILES: O=C(COc1ccccc1)O[C@@H]1C[C@](OCCCc2ccc(Cl)cc2)(C(=O)O)C[C@@H](O)[C@H]1O [Example 119]
- pIC50 ([1]; TABLE): 4.92

SMILES: O=C(CCC1CCCCC1)O[C@@H]1C[C@](OCCCc2ccc(Cl)cc2)(C(=O)O)C[C@@H](O)[C@H]1O [Example 120]
- pIC50 ([1]; TABLE): 6.16

SMILES: CC(=O)Oc1ccccc1C=Cc1ccccc1N=C=S [2-isothiocyanato-2'-acetoxystilbene]
- inhibition of glucose-6-phosphatase (glucose-6-phosphatase): non-specific inhibitors of glucose-6-phosphatase

SMILES: O=C(O[C@@H]1C[C@](OCCCc2ccc(Cl)cc2)(C(=O)O)C[C@H](O)[C@H]1O)c1ccccn1 [Example 4, [1S,3R,4R,5S]-1-(4-chlorophenylpropyl)oxy-4,5-dihydroxy-3-(2-pyridinecarbonyl)oxycyclohexanecarboxylic acid]
- pIC50 [1]: 4.59

SMILES: O=C(O[C@@H]1C[C@](OCCCc2ccc(Cl)cc2)(C(=O)O)C[C@@H](O)[C@H]1O)c1snnc1-c1ccccc1 [Example 116]
- pIC50 ([1]; TABLE): 5.35

SMILES: C#CCO[C@@]1(C(=O)O)C[C@H](O)[C@@H](O)[C@H](OC(=O)/C=C/c2ccc(O)cc2)C1 [Example 3, [1S,3R,4R,5S]-3-[(E)-3-(4-hydroxyphenyl)-2-propenoyl]oxy-4,5-dihydroxy-1-(2-propynyl)oxycyclohexanecarboxylic acid]
- pIC50 [1]: 3.25

SMILES: CC(C)CCC(=O)O[C@@H]1C[C@](OCCCc2ccc(Cl)cc2)(C(=O)O)C[C@@H](O)[C@H]1O [Example 117]
- pIC50 ([1]; TABLE): 4.39

SMILES: O=C(CCC1CCCCC1)O[C@@H]1C[C@](OCC2CC2c2ccc(Cl)cc2)(C(=O)O)C[C@@H](O)[C@H]1O (some centres unmarked) [Example 113]
- pIC50 ([1]; TABLE): 5.43

SMILES: O=C(/C=C/c1ccc(O)cc1)O[C@@H]1C[C@](OCc2ccccc2)(C(=O)O)C[C@H](O)[C@H]1O [Example 1, [1S,3R,4R,5S]-3-[(E)-3-(4-hydroxyphenyl)propenoyl]oxy-4,5-dihydroxy-1-phenylmethyloxy-cyclohexanecarboxylic acid]
- pIC50 [1]: 3.72

SMILES: O=C(O)c1cc(SSc2ccc([N+](=O)[O-])c(C(=O)O)c2)ccc1[N+](=O)[O-] [5,5'-dithiobis-2-nitrobenzoic acid]
- inhibition of glucose-6-phosphatase (glucose-6-phosphatase): non-specific inhibitors of glucose-6-phosphatase

SMILES: O=C(CCc1ccc(O)cc1)O[C@@H]1C[C@](OCCCc2ccc(Cl)cc2)(C(=O)O)C[C@@H](O)[C@H]1O [Example 44, [1S,3R,4R,5S]-1-(4-chlorophenylpropyl)oxy-3-[(E)-3-(4-hydroxyphenyl)propoyl]oxy-4,5-dihydroxycyclohexanecarboxylic acid]
- pIC50 [1]: 5.03

SMILES: O=C(CC(C1CCCCC1)n1ccnc1)O[C@@H]1C[C@](OCCCc2ccc(Cl)cc2)(C(=O)O)C[C@@H](O)[C@H]1O (some centres unmarked) [Example 69]
- pIC50 ([1]; TABLE): 3.77

SMILES: CCCO[C@@]1(C(=O)O)C[C@H](O)[C@@H](O)[C@H](OC(=O)/C=C/c2ccc(O)cc2)C1 [Example 8, [1S,3R,4R,5S]-3-[(E)-3-(4-hydroxyphenyl)-2-propenoyl]oxy-4,5-dihydroxy-1-propyloxycyclohexanecarboxylic acid]
- pIC50 ([1]; unit printed as "82 M"): 3.64

SMILES: O=C(/C=C/c1ccc(O)cc1)O[C@@H]1C[C@](OCc2cccc3ccccc23)(C(=O)O)C[C@H](O)[C@H]1O [Example 14, [1S,3R,4R,5S]-1-(1-naphthylmethyl)oxy-3-[(E)-3-(4-hydroxyphenyl)-2-propenoyl]oxy-4,5-dihydroxycyclohexanecarboxylic acid]
- inhibition of the glucose-6-phosphatase system ([1]; in words): inhibitors of the glucose-6phosphatase system

SMILES: C=Cc1ccc(C(=O)O[C@@H]2C[C@](OCCCc3ccc(Cl)cc3)(C(=O)O)C[C@@H](O)[C@H]2O)cc1 [Example 118]
- pIC50 ([1]; TABLE): 5.89
